# Test results reported in patent US6737383B1, “Herbicidal oxadiazolidines” (priority 1999, dated 2004).
# Tests used:
# bedstraw = assay: Test B pre/postemergence bedstraw; type: in vivo, Galium aparine; conditions: for Bedstraw plant response rating: Postemergence; for Plant response rating, Bedstraw: Preemergence
# Summary of the method: (§1)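 Test chemicals in a non-phytotoxic solvent mixture with surfactant were sprayed preemergence onto planted seeds and postemergence onto plants 2 to 18 cm tall (1- to 4-leaf stage). After twelve to sixteen days in a greenhouse, injury was visually rated against untreated controls from 0 (no effect) to 10 (complete control).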
# blackgrass = assay: Test B pre/postemergence blackgrass; type: in vivo, Alopecurus myosuroides
# Summary of the method: as §1
# surinam grass = assay: Test B pre/postemergence surinam grass; type: in vivo, Brachiaria decumbens
# Summary of the method: as §1
# cocklebur = assay: Test B pre/postemergence cocklebur; type: in vivo, Xanthium strumarium; conditions: for Cocklebur plant response rating: Postemergence; for Plant response rating, Cocklebur: Preemergence
# Summary of the method: as §1
# corn = assay: Test B pre/postemergence corn; type: in vivo, Zea mays; conditions: for Corn plant response rating: Postemergence; for Plant response rating, Corn: Preemergence
# Summary of the method: as §1
# crabgrass = assay: Test B pre/postemergence crabgrass; type: in vivo, Digitaria sanguinalis
# Summary of the method: as §1
# giant foxtail = assay: Test B pre/postemergence giant foxtail; type: in vivo, Setaria faberii
# Summary of the method: as §1
# pigweed = assay: Test B pre/postemergence pigweed; type: in vivo, Amaranthus retroflexus
# Summary of the method: as §1
# soybean = assay: Test B pre/postemergence soybean; type: in vivo, Glycine max
# Summary of the method: as §1
# sugar beet = assay: Test B pre/postemergence sugar beet; type: in vivo, Beta vulgaris
# Summary of the method: as §1
# velvetleaf = assay: Test B pre/postemergence velvetleaf; type: in vivo, Abutilon theophrasti
# Summary of the method: as §1
# wild oat = assay: Test B pre/postemergence wild oat; type: in vivo, Avena fatua
# Summary of the method: as §1
# purple nutsedge = assay: Test B pre/postemergence purple nutsedge; type: in vivo, Cyperus rotundus
# Summary of the method: as §1
# rice = assay: Test B flood test rice; type: in vivo, Oryza sativa
# Summary of the method: (§2)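 Read-out is a visual response score from 0 (no effect) to 10 (complete control), assigned by comparison with untreated controls. Treatment was applied at the 2-leaf stage, and plants stayed in the greenhouse for twelve to sixteen days before scoring.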
# smallflower flatsedge = assay: Test B flood test smallflower flatsedge; type: in vivo, Cyperus difformis
# Summary of the method: as §2
# bamyardgrass = assay: Test B flood test barnyardgrass; type: in vivo, Echinochloa crus-galli
# Summary of the method: as §2
# [1] = Rate 62 g/ha, scale 0 to 10, 0 is no effect, 10 is complete control
# [2] = Rate 250 g/ha, scale 0 to 10, 0 no effect, 10 complete control
# [3] = Rate 125 g/ha, scale 0 to 10 (0 no effect, 10 complete control)
# [4] = Rate 250 g/ha, scale of 0 to 10 where 0 is no effect and 10 is complete control
# [5] = Rate 125 g/ha, scale 0 to 10, 0 no effect, 10 complete control
# [6] = Postemergence, Rate 62 g/ha, scale 0 to 10, 0 is no effect, 10 is complete control
# [7] = Postemergence, Rate 250 g/ha, scale 0 to 10, 0 no effect, 10 complete control
# [8] = Preemergence, Rate 62 g/ha, scale 0 to 10, 0 is no effect, 10 is complete control
# [9] = Preemergence, Rate 125 g/ha, scale 0 to 10 (0 no effect, 10 complete control)
# [10] = Preemergence, Rate 250 g/ha, scale of 0 to 10 where 0 is no effect and 10 is complete control
# [11] = Preemergence, Rate 500 g/ha, scale 0 (no effect) to 10 (complete control)
# [12] = Rate 125 g/ha, Postemergence, scale 0 to 10, 0 no effect, 10 complete control
# [13] = Rate 500 g/ha, Postemergence, scale 0 to 10, 0 no effect, 10 complete control
# [14] = Rate 500 g/ha, scale 0 to 10, 0 no effect, 10 complete control
# [15] = Rate 125 g/ha, Postemergence section (flood test species), scale 0 to 10, 0 no effect, 10 complete control
# [16] = Rate 500 g/ha, listed under Postemergence (flood test species), scale 0 to 10, 0 no effect, 10 complete control
# [17] = flood test, listed under Postemergence, Rate 250 g/ha, scale 0 to 10, 0 no effect, 10 complete control
structure (smiles),measurement,setting,value
CCc1cccc(C)c1-n1c(=O)on(C(=O)N(c2ccc(F)cc2)C(C)C)c1=O [Compound 52],Bedstraw plant response rating,bedstraw; [1],1
same,Bedstraw plant response rating,bedstraw; [2],8
same,"Plant response rating, Bedstraw",bedstraw; [1],0
same,"Plant response rating, Bedstraw",bedstraw; [3],0
same,"Plant response rating, Bedstraw",bedstraw; [4],0
same,Bedstraw plant response rating,bedstraw; [5],5
same,Blackgrass plant response rating,blackgrass; [6],0
same,Blackgrass plant response rating,blackgrass; [7],0
same,"Plant response rating, Blackgrass",blackgrass; [8],0
same,"Plant response rating, Blackgrass",blackgrass; [9],0
same,"Plant response rating, Blackgrass",blackgrass; [10],3
same,Blackgrass plant response rating,blackgrass; [11],4
same,Blackgrass plant response rating,blackgrass; [12],0
same,Blackgrass plant response rating,blackgrass; [13],0
same,B. signalgrass plant response rating,surinam grass; [6],0
same,B. signalgrass plant response rating,surinam grass; [7],0
same,"Plant response rating, B. signalgrass",surinam grass; [8],0
same,"Plant response rating, B. signalgrass",surinam grass; [9],0
same,"Plant response rating, B. signalgrass",surinam grass; [10],0
same,B. signalgrass plant response rating,surinam grass; [11],6
same,B. signalgrass plant response rating,surinam grass; [12],0
same,B. signalgrass plant response rating,"surinam grass; Rate 500 g/ha, Postemergence, scale of 0 to 10 where 0 is no effect and 10 is complete control",1
same,Cocklebur plant response rating,cocklebur; [1],0
same,Cocklebur plant response rating,cocklebur; [2],0
same,"Plant response rating, Cocklebur",cocklebur; [1],0
same,"Plant response rating, Cocklebur",cocklebur; [3],0
same,"Plant response rating, Cocklebur",cocklebur; [4],0
same,Cocklebur plant response rating,cocklebur; [5],0
same,Cocklebur plant response rating,cocklebur; [14],0
same,Corn plant response rating,corn; [1],0
same,Corn plant response rating,corn; [2],3
same,"Plant response rating, Corn",corn; [1],0
same,"Plant response rating, Corn",corn; [3],0
same,"Plant response rating, Corn",corn; [4],0
same,Corn plant response rating,corn; [5],0
same,Corn plant response rating,corn; [14],4
same,Crabgrass plant response rating,crabgrass; [6],1
same,Crabgrass plant response rating,crabgrass; [7],5
same,"Plant response rating, Crabgrass",crabgrass; [8],0
same,"Plant response rating, Crabgrass",crabgrass; [9],1
same,"Plant response rating, Crabgrass",crabgrass; [10],6
same,Crabgrass plant response rating,crabgrass; [11],10
same,Crabgrass plant response rating,crabgrass; [12],1
same,Crabgrass plant response rating,crabgrass; [13],6
same,Giant foxtail plant response rating,giant foxtail; [6],0
same,Giant foxtail plant response rating,giant foxtail; [7],3
same,"Plant response rating, Giant foxtail",giant foxtail; [8],3
same,"Plant response rating, Giant foxtail",giant foxtail; [9],5
same,"Plant response rating, Giant foxtail",giant foxtail; [10],7
same,Giant foxtail plant response rating,giant foxtail; [11],10
same,Giant foxtail plant response rating,giant foxtail; [12],3
same,Giant foxtail plant response rating,giant foxtail; [13],4
same,Redroot pigweed plant response rating,pigweed; [6],0
same,Redroot pigweed plant response rating,pigweed; [7],0
same,"Plant response rating, Redroot pigweed",pigweed; [8],0
same,"Plant response rating, Redroot pigweed",pigweed; [9],0
same,"Plant response rating, Redroot pigweed",pigweed; [10],1
same,Redroot pigweed plant response rating,pigweed; [11],6
same,Redroot pigweed plant response rating,pigweed; [12],0
same,Redroot pigweed plant response rating,pigweed; [13],0
same,Soybean plant response rating,soybean; [6],2
same,Soybean plant response rating,soybean; [7],2
same,"Plant response rating, Soybean",soybean; [8],0
same,"Plant response rating, Soybean",soybean; [9],0
same,"Plant response rating, Soybean",soybean; [10],0
same,Soybean plant response rating,soybean; [11],0
same,Soybean plant response rating,soybean; [12],2
same,Soybean plant response rating,soybean; [13],2
same,Sugarbeets plant response rating,sugar beet; [6],0
same,Sugarbeets plant response rating,sugar beet; [7],0
same,"Plant response rating, Sugarbeets",sugar beet; [8],0
same,"Plant response rating, Sugarbeets",sugar beet; [9],0
same,"Plant response rating, Sugarbeets",sugar beet; [10],0
same,Sugarbeets plant response rating,sugar beet; [11],0
same,Sugarbeets plant response rating,sugar beet; [12],0
same,Sugarbeets plant response rating,sugar beet; [13],0
same,Velvetleaf plant response rating,velvetleaf; [6],0
same,Velvetleaf plant response rating,velvetleaf; [7],0
same,"Plant response rating, Velvetleaf",velvetleaf; [8],0
same,"Plant response rating, Velvetleaf",velvetleaf; [9],0
same,"Plant response rating, Velvetleaf",velvetleaf; [10],0
same,Velvetleaf plant response rating,velvetleaf; [11],0
same,Velvetleaf plant response rating,velvetleaf; [12],0
same,Velvetleaf plant response rating,velvetleaf; [13],0
same,Wild oats plant response rating,wild oat; [6],0
same,Wild oats plant response rating,wild oat; [7],1
same,"Plant response rating, Wild oats",wild oat; [9],0
same,"Plant response rating, Wild oats",wild oat; [10],0
same,Wild oats plant response rating,wild oat; [11],1
same,Wild oats plant response rating,wild oat; [12],0
same,Wild oats plant response rating,wild oat; [13],1
same,Nutsedge plant response rating,purple nutsedge; [6],0
same,Nutsedge plant response rating,purple nutsedge; [7],0
same,"Plant response rating, Nutsedge",purple nutsedge; [8],0
same,"Plant response rating, Nutsedge",purple nutsedge; [9],0
same,"Plant response rating, Nutsedge",purple nutsedge; [10],0
same,Nutsedge plant response rating,purple nutsedge; [11],0
same,Nutsedge plant response rating,purple nutsedge; [12],0
same,Nutsedge plant response rating,purple nutsedge; [13],0
same,Rice plant response rating,rice; [6],0
same,Rice plant response rating,rice; [15],0
same,Rice plant response rating,rice; [16],0
same,Rice plant response rating,rice; [17],0
same,S. Flatsedge plant response rating,smallflower flatsedge; [6],0
same,S. Flatsedge plant response rating,smallflower flatsedge; [15],0
same,S. Flatsedge plant response rating,smallflower flatsedge; [16],0
same,S. Flatsedge plant response rating,smallflower flatsedge; [17],0
same,Barnyardgrass plant response rating,bamyardgrass; [6],0
same,Barnyardgrass plant response rating,bamyardgrass; [15],0
same,Barnyardgrass plant response rating,bamyardgrass; [16],0
same,Barnyardgrass plant response rating,bamyardgrass; [17],0
